Entries after “also recorded” stand apart in the source; their conditions may differ. Read-outs that look alike come from different tables or passages of the source.
What was measured:
NISK 9 β-cells [1] = assay: Insulin release (radioimmunoassay) from NISK 9 β-cells; assay type: cell-based, human; settings: glucose 0.5-16 mM, KCl 40 mM, tolbutamide 0.2 mM
Method: NISK 9 cells (NES 2Y cells stably transfected with IUF1, Sur1 and Kir 6.2) were preincubated for 180 minutes in media containing 0.5 mM glucose. The media was then replaced with that containing the indicated concentrations of glucose, and the media samples assayed for insulin by radioimmunoassay after a further 60 minutes incubation. The data are presentative of two experiments, and show the mean +/− standard deviation of 6 separate determinations. The NISK9 cell line is shown to secrete insulin in response to changes in glucose in the physiological concentration range.
(§1) Insulin was measured by radioimmunoassay using an anti-human insulin antibody (Linco, UK) and ^125I-human insulin, as previously described.

NES 2Y β-cells [2] = assay: Insulin release (radioimmunoassay) from NES 2Y β-cells; assay type: cell-based, human; settings: 40 mM KCl, 0.2 mM tolbutamide, glucose
Method: as §1

NES 2Y β-cells [3] = assay: Ca2+ microfluorimetry (fura-2) in NES 2Y β-cells; assay type: cell-based, human; settings: KCl 40 mM, tolbutamide 0.2 mM, glucose 20 mM
Method: (§2) Ca^2+ microfluorimetry experiments were performed with fura-2-loaded cells and intact islets as described previously.

NISK 9 β-cells [4] = assay: Ca2+ microfluorimetry (fura-2) in NISK 9 β-cells; assay type: cell-based, human; settings: for effect on cytosolic Ca2+ ([Ca2+]i): glucose n=8, n=22, KCl 40 mM n=22; for Δ[Ca2+]i, rise in the cytosolic concentration: average, tolbutamide n=22, efaroxan n=12
Method: as §2

KATP channels [5] = target: T1, KATP channels (Homo sapiens, UniProt Q09428+Q14654); assay: Patch-clamp recording of KATP channels in control human β-cells; assay type: cell-based; settings: cell attached configuration, diazoxide 500 μM, tolbutamide 200 μM
T1 construct: primary cultured human islet cells (control); endogenous in cells; host or cells: primary cultured human islet beta-cells
Description: (In the record shown, the maximum number of coincident open ion channel events is increased from 3 to 30). Under the same experimental conditions none of these agents had any action on ion channel events in the NES 2Y β-cells. Similar data were obtained in 4 (panel A) and 18 (panel B) other control experiments, and in a total of N=10 (panel A) and n=10 (panel B) NES 2Y β-cells experiments. Note that upward deflections represent outward current events, and that the broken lines indicate the zero current level which corresponds to closure of all K^+ channels. The same ionic gradients were used for each of the experimental protocols described, and all data are plotted to the same scales in each panel.
(§3) All data were obtained from either primary cultured human islet cells (control) or from NES 2Y β-cells(transfected and untransfected) by patch-clamp techniques.
(§4) Standard KCl- and NaCl-rich solutions were used in all electophysiology recordings to provide quasi-physiological cationic gradients. Procedures used for data collection and analysis were described previously.

[6] = system: recombinant KATP channels; assay: Patch-clamp recording of recombinant KATP channels in NISK 9 β-cells; assay type: cell-based, human; settings: for effect on K+ channel in inside-out patch: NISK 9 β-cell, same inside-out patch, ATP 500 μM, diazoxide 500 μM in the presence of ATP, tolbutamide 250 μM, efaroxan 200 μM; for effect on recombinant KATP channels: NISK 9 β-cells, cell attached (n=4) and inside-out patch (n=5); for effect of nucleotides on recombinant KATP channels: ADP in the presence of inhibitory concentration of ATP
Method: In panel A, all data come from the same inside-out patch recording. […] When recorded using symmetrical 140 mM KCl-rich solutions on either side of the cell membrane the channel has an inwardly-retifying relationship, with an estimated inward current conductance of approximately 70 pS. See also claim 11 hereinafter.
Panels A and B were obtained under the same conditions as illustrated in FIG. 9. […] In panel B, tolbutamide is shown to inhibit diazoxide-activated KATP channels in an inside-out patch; note that when this configuration is used, ATP must be added to the inside face of the cell membrane to facilitate diazoxide-induced K^+ channel activation. Mean data from several experiments are also illustrated in panels A and B. See also claim 11 hereinafter.
All data comes from the same membrane recording: an inside-out patch record obtained from a NISK 9 β-cell. […] Closure of KATP channels was also associated with a rise in the cytosolic concentration ([Ca^2+]1), not shown. Thus, the Δ[Ca^2+]1 for tolbutamide was found, on average to be 158+/−24 nM (n=22), and for efaroxan 195+/−40 nM (n=12). See also claim 11 hereinafter.
as §3, §4

KATP channels [7] = assay: Patch-clamp recording of KATP channels in NES 2Y β-cells; assay type: cell-based, human; settings: intact cells (diazoxide 0.5 mM) or cell-free patches (cocktail)
untransfected cells = settings: 800 μg/ml G418 (data not shown)
[8] = system: voltage-gated Ca2+ channels; assay type: cell-based, human
[9] = system: voltage-gated Ca2+ channels; assay type: cell-based, human; remark: listed apart in the source
[10] = system: voltage-gated Na+ channels; assay type: cell-based, human
[11] = system: voltage-gated Na+ channels; assay type: cell-based, human; remark: listed apart in the source

T1 sequence (Q09428 whole entry): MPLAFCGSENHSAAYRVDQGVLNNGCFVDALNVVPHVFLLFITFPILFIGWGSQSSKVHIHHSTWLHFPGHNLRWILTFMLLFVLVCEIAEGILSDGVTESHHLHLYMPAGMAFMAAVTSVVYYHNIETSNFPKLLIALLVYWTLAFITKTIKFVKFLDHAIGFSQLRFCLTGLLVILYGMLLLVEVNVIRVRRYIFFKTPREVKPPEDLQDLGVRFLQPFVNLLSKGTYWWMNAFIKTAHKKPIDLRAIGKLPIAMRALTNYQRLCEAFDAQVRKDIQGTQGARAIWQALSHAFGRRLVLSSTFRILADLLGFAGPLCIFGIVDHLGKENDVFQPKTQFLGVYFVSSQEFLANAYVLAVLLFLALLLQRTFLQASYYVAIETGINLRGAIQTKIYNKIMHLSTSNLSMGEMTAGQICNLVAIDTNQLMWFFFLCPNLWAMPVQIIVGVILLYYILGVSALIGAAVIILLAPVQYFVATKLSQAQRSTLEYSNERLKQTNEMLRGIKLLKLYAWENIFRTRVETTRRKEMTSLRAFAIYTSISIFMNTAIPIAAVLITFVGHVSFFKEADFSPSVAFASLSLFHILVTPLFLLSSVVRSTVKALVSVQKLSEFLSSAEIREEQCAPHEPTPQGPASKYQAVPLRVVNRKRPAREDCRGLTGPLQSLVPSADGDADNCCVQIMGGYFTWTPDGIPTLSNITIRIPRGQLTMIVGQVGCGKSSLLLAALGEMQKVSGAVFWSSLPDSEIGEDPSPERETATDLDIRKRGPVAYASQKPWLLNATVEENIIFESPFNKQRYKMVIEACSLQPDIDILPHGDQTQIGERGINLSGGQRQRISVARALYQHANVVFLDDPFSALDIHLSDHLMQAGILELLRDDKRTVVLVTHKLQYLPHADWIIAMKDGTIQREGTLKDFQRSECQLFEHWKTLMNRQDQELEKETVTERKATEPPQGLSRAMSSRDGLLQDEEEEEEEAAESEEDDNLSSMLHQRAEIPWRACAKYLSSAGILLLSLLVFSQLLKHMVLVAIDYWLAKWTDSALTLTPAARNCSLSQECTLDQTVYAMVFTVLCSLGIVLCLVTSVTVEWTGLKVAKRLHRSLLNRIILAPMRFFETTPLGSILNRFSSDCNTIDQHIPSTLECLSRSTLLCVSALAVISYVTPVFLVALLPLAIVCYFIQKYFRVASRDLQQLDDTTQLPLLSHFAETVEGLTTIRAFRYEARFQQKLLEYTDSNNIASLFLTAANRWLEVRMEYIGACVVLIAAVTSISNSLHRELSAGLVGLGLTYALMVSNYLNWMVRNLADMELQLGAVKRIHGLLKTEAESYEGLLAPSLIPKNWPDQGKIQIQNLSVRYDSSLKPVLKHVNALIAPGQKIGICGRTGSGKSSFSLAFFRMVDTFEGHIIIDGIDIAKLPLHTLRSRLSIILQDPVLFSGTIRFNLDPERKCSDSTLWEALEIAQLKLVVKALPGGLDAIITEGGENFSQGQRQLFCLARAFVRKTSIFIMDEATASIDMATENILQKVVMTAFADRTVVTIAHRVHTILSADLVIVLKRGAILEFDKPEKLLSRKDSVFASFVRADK
T1 sequence (Q14654 whole entry): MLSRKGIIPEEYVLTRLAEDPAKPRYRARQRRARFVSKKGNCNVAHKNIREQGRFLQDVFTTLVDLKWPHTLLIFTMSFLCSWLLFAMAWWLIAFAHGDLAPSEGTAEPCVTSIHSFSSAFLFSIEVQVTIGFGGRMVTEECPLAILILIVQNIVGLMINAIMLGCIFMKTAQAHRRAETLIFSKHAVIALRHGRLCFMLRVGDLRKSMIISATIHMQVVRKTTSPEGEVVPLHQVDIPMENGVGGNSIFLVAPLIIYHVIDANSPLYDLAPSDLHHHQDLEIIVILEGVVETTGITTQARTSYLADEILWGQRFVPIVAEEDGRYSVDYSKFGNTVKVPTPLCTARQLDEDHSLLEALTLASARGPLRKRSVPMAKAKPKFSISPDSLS

## [Cl-].[K+] [KCl]
NISK 9 β-cells [1]
  insulin secretion: regulated insulin secretion
NES 2Y β-cells [2]
  insulin release: fail to release insulin
NES 2Y β-cells [3]
  effect on cytosolic Ca2+ ([Ca2+]i): no elevation of [Ca^2+]i
NISK 9 β-cells [4]
  effect on cytosolic Ca2+ ([Ca2+]i): raise [Ca^2+]i

## CC1=NS(=O)(=O)c2cc(Cl)ccc2N1 [diazoxide]
KATP channels [5]
  effect on spontaneously open KATP channels: activated
[6]
  effect on K+ channel in inside-out patch: activation
  effect on recombinant KATP channels: activated
NISK 9 β-cells [4]; n=5
  effect on the glucose-induced rise in [Ca2+]i: inhibited
KATP channels [7]
  effect on KATP channel activity / ion channel events: no response

## Nc1ncnc2c1ncn2[C@@H]1O[C@H](COP(=O)(O)OP(=O)(O)OP(=O)(O)O)[C@@H](O)[C@H]1O [ATP]
[6]
  effect on K+ channel in inside-out patch: channel block
[6]; NISK β-cells, inside-out patch, ATP 0.005-1 mM, n=4, read-out: 50% inhibition of KATP channels
  IC50: 5 to 10 µM
[6]; NISK β-cells, inside-out patch
  effect of nucleotides on recombinant KATP channels: inhibition of channels

## CCCCNC(=O)NS(=O)(=O)c1ccc(C)cc1 [tolbutamide]
NISK 9 β-cells [1]
  insulin secretion: regulated insulin secretion
NES 2Y β-cells [2]
  insulin release: fail to release insulin
KATP channels [5]
  effect on spontaneously open KATP channels: inhibited
[6]
  effect on K+ channel in inside-out patch: channel inhibition
  effect on recombinant KATP channels: inhibited
[6]; isolated patches, 0.25 mM tolbutamide, n=3
  KATP channel activity remaining, % of the control value: 40.8±8.5%
NES 2Y β-cells [3]
  effect on cytosolic Ca2+ ([Ca2+]i): no elevation of [Ca^2+]i
NISK 9 β-cells [4]
  Δ[Ca2+]i, rise in the cytosolic concentration: 158 ± 24 nM
  effect on cytosolic Ca2+ ([Ca2+]i): raise [Ca^2+]i

## Nc1ncnc2c1ncn2[C@@H]1O[C@H](COP(=O)(O)OP(=O)(O)O)[C@@H](O)[C@H]1O [ADP]
[6]; NISK β-cells, inside-out patch
  effect of nucleotides on recombinant KATP channels: activated; also recorded: reversible recovery from closure

## CN[C@@H]1[C@@H](O)[C@@H](O[C@@H]2[C@@H](O)[C@H](O[C@H]3O[C@H]([C@@H](C)O)[C@@H](O)[C@H](O)[C@H]3N)[C@@H](N)C[C@H]2N)OC[C@]1(C)O [G418]
Untransfected cells
  time to toxic cell death: ≤ 12 h

## CCC1(C2=NCCN2)Cc2ccccc2O1 (stereo not drawn) [efaroxan]
[6]
  effect on K+ channel in inside-out patch: channel inhibition
[6]; isolated patches, 0.2 mM efaroxan, n=3
  KATP channel activity remaining, % of the immediate control value: 8.5±5.6%
NISK 9 β-cells [4]
  Δ[Ca2+]i, rise in the cytosolic concentration: 195 ± 40 nM

## COC(=O)C1=C(C)NC(C)=C([N+](=O)[O-])C1c1ccccc1C(F)(F)F (racemic) [(+/−) BAY K-8644]
[8]
  effect on Ttx-insensitive currents: activation
[9]
  effect on Ttx-insensitive currents: activation

## NC1=N[C@H](O)[C@H]2[C@H]3O[C@]4(O)O[C@@H]([C@@H](O)[C@@]2(N1)[C@@H]4O)[C@]3(O)CO [tetrodotoxin]
[10]
  effect on voltage-gated currents: inhibition
[11]
  effect on voltage-gated currents: inhibition

Reference: patent US6372501B1, “Glucose responsive β-cell line” (Aberdeen University, priority 1997, dated 2002)
